Assay results reported in US8536168B2 (Novartis AG, priority 2007, dated 2013).
Like-named read-outs stand apart in the source and are kept apart here.

Assays:
[1] = system: Gli-luciferase activity; experiment: Reporter gene assay (RGA) in TMHh12 cells, antagonism of Gli-luciferase activity in the presence of a Smo agonist; format: cell-based
Protocol: Activity of the compounds was evaluated using a reporter gene assay (RGA) in TMHh12 cells.

[2] = target: mouse Smoothened receptor (Mus musculus, UniProt P56726); experiment: Smo binding assay, displacement of radio-labeled smoothened agonist, filter binding format (mouse); settings: displacement of small molecule agonist of Smoothened, read-out: Mouse Smo bdg., IC50
Excerpt: A Smo binding assay was developed using radio-labeled smoothened agonist for compound competition.

[3] = 25 nM small molecule Smo agonist, read-out: RGA (25 nM Smo agonist) IC50
[4] = read-out: RGA (1 nM Smo agonist) IC50, 1 nM small molecule Smo agonist

Chain of mouse Smoothened receptor (P56726 33-793): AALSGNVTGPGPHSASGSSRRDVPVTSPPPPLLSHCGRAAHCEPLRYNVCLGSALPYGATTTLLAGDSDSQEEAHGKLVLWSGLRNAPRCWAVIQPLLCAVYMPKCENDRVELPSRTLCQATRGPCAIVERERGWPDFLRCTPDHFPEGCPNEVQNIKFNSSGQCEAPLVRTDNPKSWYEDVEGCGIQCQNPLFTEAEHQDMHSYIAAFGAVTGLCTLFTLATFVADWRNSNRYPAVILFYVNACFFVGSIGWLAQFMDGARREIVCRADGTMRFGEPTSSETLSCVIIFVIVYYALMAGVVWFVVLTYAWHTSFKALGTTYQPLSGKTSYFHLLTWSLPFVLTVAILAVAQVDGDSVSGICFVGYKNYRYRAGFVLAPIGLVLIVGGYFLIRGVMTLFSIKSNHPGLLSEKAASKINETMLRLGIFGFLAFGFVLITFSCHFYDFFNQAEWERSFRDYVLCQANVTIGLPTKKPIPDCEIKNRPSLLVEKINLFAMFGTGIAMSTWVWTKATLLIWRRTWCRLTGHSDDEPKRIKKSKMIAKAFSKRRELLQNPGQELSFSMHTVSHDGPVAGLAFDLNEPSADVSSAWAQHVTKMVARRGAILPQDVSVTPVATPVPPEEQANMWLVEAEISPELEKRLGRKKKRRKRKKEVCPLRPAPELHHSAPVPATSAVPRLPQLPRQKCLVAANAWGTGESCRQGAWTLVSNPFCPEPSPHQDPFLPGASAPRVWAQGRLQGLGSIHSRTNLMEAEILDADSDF

Compound | IC50 [1, 3] [nM] | IC50 [1, 4] [nM] | IC50 [2] [nM]
COCCNC(=O)c1ccc(N2CCN(c3nnc(Cc4ccccc4)c4ccccc34)CC2)nc1 [Example 54f] | 100 to 1000 | 100 to 1000 | 100 to 1000
c1ccc2c(N3CCN(c4ccncc4)CC3)nnc(Cc3ccncc3)c2c1 [Example 26] | – | 1000 to 10000 | 1000 to 10000
O=C(NCc1ccc(N2CCN(c3nnc(Cc4ccccc4)c4ccccc34)CC2)cc1)OCc1ccccc1 [Example 77] | 1000 to 10000 | 100 to 1000 | 100 to 1000
N#Cc1ccc(N2CCN(c3nnc(Cc4ccccc4)c4ccccc34)CC2)nc1 [Example 4] | – | – | 1000 to 10000
c1ccc(Cc2nnc(N3CCN(c4ccc5ccccc5c4)CC3)c3ccccc23)cc1 [Example 31] | 1000 to 10000 | 100 to 1000 | 100 to 1000
Cc1cc(N2CCN(c3ccc(C#N)cn3)CC2)nnc1Cc1ccc(Cl)cc1 [Example 93] | – | 100 to 1000 | < 100
COC(=O)c1cnc(N2CCN(c3nnc(Cc4ccccc4)c4ccccc34)CC2)nc1 [Example 140] | 1000 to 10000 | 1000 to 10000 | 100 to 1000
COC(=O)CC(SCC(=O)NCc1ccc(N2CCN(c3nnc(Cc4ccccc4)c4ccccc34)CC2)nc1)C(=O)OC (stereo not drawn) [Example 215] | 1000 to 10000 | 100 to 1000 | –
O=C(NCc1ccc(N2CCN(c3nnc(Cc4ccncc4)c4ccccc34)CC2)cc1)OCc1ccccc1 [Example 78] | 10000 to 40000 | 1000 to 10000 | 1000 to 10000
CN(C)CCNC(=O)c1ccc(N2CCN(c3nnc(Cc4ccccc4)c4ccccc34)CC2)nc1 [Example 54h] | 100 to 1000 | 100 to 1000 | –
Cc1cc(Cc2nnc(N3CCN(c4ccccn4)CC3)c3ccccc23)ccn1 [Example 22] | 10000 to 40000 | 1000 to 10000 | –
N#Cc1ccc(N2CCN(c3cnc(Cc4cccc(C#N)c4)c4ccccc34)CC2)nc1 [Example 80] | 10000 to 40000 | 1000 to 10000 | –
Cc1cc(Cc2nnc(N3CCN(c4ccccc4)CC3)c3ccccc23)ccn1 [Example 11] | 10000 to 40000 | 1000 to 10000 | –
NCc1ccc(N2CCN(c3nnc(Cc4ccncc4)c4ccccc34)CC2)cc1 [Example 72] | 10000 to 40000 | 1000 to 10000 | –
c1ccc(N2CCN(c3nnc(Cc4ccncc4)c4ccccc34)CC2)cc1 [Example 6] | 10000 to 40000 | 1000 to 10000 | –
Cc1cc(Cc2nnc(N3CCC(c4ccccc4)CC3)c3ccccc23)ccn1 [Example 14] | 1000 to 10000 | 1000 to 10000 | –
Cc1cc(Cc2nnc(N3CCN(c4cccc5ccccc45)CC3)c3ccccc23)ccn1 [Example 35] | 1000 to 10000 | 1000 to 10000 | –

Further lines, results first:

IC50 [1, 3] [nM] | IC50 [1, 4] [nM] | IC50 [2] [nM] | Compound
100 to 1000 | < 100 | < 100 | O=C(NCc1ccccc1)c1ccc(N2CCN(c3nnc(Cc4ccccc4)c4ccccc34)CC2)nc1 [Example 54l]
100 to 1000 | < 100 | 100 to 1000 | Cc1ccnc(N2CCCN(c3nnc(Cc4ccccc4)c4ccccc34)CC2)n1 [Example 41]
100 to 1000 | < 100 | 100 to 1000 | CNC(=O)NCc1ccc(N2CCN(c3nnc(Cc4ccccc4)c4ccccc34)CC2)nc1 [Example 206]
< 100 | < 100 | < 100 | Cc1ccnc(N2CCN(c3nnc(Cc4ccccc4)c4ccccc34)CC2)n1 [Example 47]
100 to 1000 | < 100 | < 100 | c1ccc(Cc2nnc(N3CCN(c4ccc5ccccc5n4)CC3)c3ccccc23)cc1 [Example 18]
< 100 | < 100 | < 100 | CCc1cnc(N2CCN(c3nnc(Cc4ccccc4)c4ccccc34)CC2)nc1 [Example 43]
100 to 1000 | < 100 | – | NCc1ccc(N2CCN(c3nnc(Cc4ccccc4)c4ccccc34)CC2)nc1 [Example 71]
100 to 1000 | < 100 | – | CCN1CCOc2cc3c(cc21)Oc1cc2c(cc1=N3)OCC[N+]=2CCCCCC(=O)NCc1ccc(N2CCN(c3nnc(Cc4ccccc4)c4ccccc34)CC2)nc1 [Example 74]
